Experiment [1] concerns Normal Mice (Mus musculus). Description: Immunostimulant (humorral) activity: haemagglutination (HA) antibody titre after immunisation with rabbit RBC's. It is filed as in vivo. Particulars: for Haemagglutination titre: mice fed 50-100 mg/Kg body weight, rabbit RBC antigen day 7 and 14, highest serum dilution showing agglutination. Here is the method: A. For Humorral Immune Response • a) Treating the animals with the combination of the three coumarinolignoids at the dose in the range of 50-200 mg/Kg body weight for a period of 1-28 days. • b) Administering the animals with an antigen in the range of 0.01 to 0.3 ml of 5×10^9 RBC's in combination with a pharmaceutically acceptable diluent in a range 20-80% of the antigen used on day 7 for the initiation of antibody production. • c) Administering the same dosage regimen of the antigen and diluent as a booster dose after a period of 3-14 days from the day of primary immunization. • d) Withdrawing the blood using a capillary from the orbital plexus of the animal after a period of 18-25 days from the day of primary immunization. • e) Assessing the antibody production in the serum separated and isolated on 28th day through haemagglutination in a 96 well ‘U’ bottom microtitre plate at a titre ranging from 32-2048.
Normal healthy outbred mice, maintained under standard conditions (22±3° C., 12:12 hr light:dark cycle, pellet diet and soaked Bengal gram), 5 animals in each group were taken for the experiment. The animals were fed with the test compound at the dose rate of 50-100 mg/Kg body weight for a period of 1-28 days. Freshly collected and washed rabbit RBC's was used as an antigen which was used to immunize the animal on day 7 followed by the booster dose on day 14th. Blood was collected from the orbital plexus after 21 days and assessed for haemaggluting (HA) titre. The haemagglutination was carried upon using a serial two-fold dilution of the serum in 96 well ‘U’ bottom microtitre plates. The highest dilution showing visible agglutination was taken as the antibody titre.

Experiment [2] has as its system Hepatocytes (primary cultured liver cells). The experiment in a line: SGOT quantification of cell culture supernatant of liver cells damaged with d-galactosamine. The format is cell-based. Particulars: compounds @ 1 μg/ml, 48-72 hrs incubation. How it is done: Hepatocytes were isolated and cultured into tissue culture plates and damaged with d-galactosamine @ 1 μg/ml and the cells were treated with the compounds under question. After 48-72 hrs of incubation the cell culture supernatant was taken for the estimation of SGOT levels which is indicative of the damage of the primary cultured liver cells.

Molecules are shown by their SMILES.

Turning to `O=P1(N(CCCl)CCCl)NCCCO1` (centres unmarked) [Ledoxan, Cyclophosphamide], in experiment [1] (256 in normal control), the “humorral immunity HA titre” value came to 0. Moreover, the Haemagglutination titre in experiment [1] (animal 1), in experiment [1] (animal 2), in experiment [1] (animal 3), in experiment [1] (animal 4), in experiment [1] (animal 5) and in experiment [1] (animal 7) was 0 each time.
Turning to `N[C@H]1C(O)O[C@H](CO)[C@H](O)[C@@H]1O` (stereo partly drawn) [d-galactosamine], the “SGOT levels of the cell culture supernatant” value in experiment [2] (d-Galactosamine concentration 0.01) amounted to 286; in experiment [2] (d-Galactosamine concentration 0.1), 325; in experiment [2] (d-Galactosamine concentration 1) it was 420; in experiment [2] (d-Galactosamine concentration 10), 455.

For the origin of these results see patent US20070258989A1, “Immunomodulatory pharmaceutical composition and a process for preparation thereof” (Council of Scientific and Industrial Research, priority 2005, published 2007).
